In the test the test system is intimal hyperplasia after balloon injury of the carotid artery. Put plainly: Balloon injury model of the carotid artery. The format is in vivo, rat. The following applies: CO 250 ppm for one hour prior to balloon injury; 14 days after injury; n=8-10. The source says: Animals. Male (250-350 g) Brown Norway rats (RT1^n) were used as aortic graft donors and male (250-350 g) Lewis rats (RT11) as recipients. Dawley (400-450 g) rats were used in the balloon injury model. Adult male C57BL/6, C57/S129, p21^−/− and p53^−/− null mice were purchased from Jackson Laboratory (Bar Harbor, Me.). mkk3^(−/−) null mice were generated as described Lu et al. (EMBO. 18:1845-1857 (1999)). The inos^−/− and enos^−/− mice were bred at the University of Pittsburgh. Aortic transplant model. Aortic transplantation was performed as described in Shimizu et al. (Nat. Med. 7:738-741 (2001)). Briefly, 3 to 4 cm of descending aorta was harvested from the donor and implanted between the renal arteries and the aortic bifurcation of the recipient. Both edges of the native abdominal aorta were ligated. Balloon injury model. Balloon angioplasty was carried out as described in Murakami et al. (Atherosclerosis 157:361-368 (2001)). […] [^3H]thymidine incorporation was measured by scintillation spectroscopy and presented as mean counts/min/well. […] Areas from eight to ten captured images were calculated using digital imaging software as number of pixels corresponding to those areas. Twenty-four to forty-eight sections from each group were statistically analyzed with SPSS software version 10. […]

Turning to `[C-]#[O+]` [CO, carbon monoxide], the “Intimal hyperplasia, suppression compared to control animals exposed to air” value came to 74±8%.

Values taken from patent US7691416B2, “Methods of treating vascular disease” (priority 2002, dated 2010).
